Assay results from US9487508B2, “SGC stimulators” (IRONWOOD PHARMACEUTICALS, INC., priority 2012, dated 2016).

How the values were obtained:
[1] = system: Guinea pig tracheal smooth muscle; test: Electrical field stimulated guinea pig tracheal smooth muscle contraction (ex vivo); conditions: sub-maximal EFS; pooled data of three experiments; 95% CI 0.78-0.94; read-out: IC50, inhibition of EFS-induced tracheal smooth muscle contraction
Source text: It is possible to assess the bronchodilating effects of sGC stimulators by using the system described below. This system allowed us to determine potency, efficacy and duration of action of several sGC stimulators, as well as to assess potential side effects such as blood pressure, or heart rate changes.
Animals: Guinea pig, Dunkin Hartley, male, Full barrier-bred and certified free of specific micro-organisms on receipt 525-609 g on the experimental day, Harlan UK Ltd. Guinea pigs were housed in a group of 4 in solid-bottomed cages with Gold Flake bedding in a controlled environment (airflow, temperature and humidity). Food (FD1, Special Diet Services) and water were provided ad libitum.
On each experimental day, a guinea pig was killed by exposure to a rising concentration of CO2 and the trachea removed. […] Tissues were washed with Kreb's buffer and stimulated using the previously determined sub-maximal voltage for 1 hour to establish a stable baseline contraction prior to assessment of compound activity.
A cumulative dose response curve (DRC) to each test substance was then performed and changes in smooth muscle contraction measured. The effect of each test substance in each experiment was expressed as a percentage inhibition of the baseline contraction, normalized to the relevant vehicle controls. […]

[2] = target: T1, Human soluble guanylate cyclase enzyme (hsGC) (Homo sapiens, UniProt Q02108+Q02153); test: Purified human sGC enzyme synergy assay in the presence of sodium nitroprusside (SNP); format: biochemical; conditions: 30 μM compound, 1 μM SNP; fold change of specific activity vs DMSO control
T1 construct: purchased Enzo Inc. ALX-201-177
T1 sequence (Q02153 1-619): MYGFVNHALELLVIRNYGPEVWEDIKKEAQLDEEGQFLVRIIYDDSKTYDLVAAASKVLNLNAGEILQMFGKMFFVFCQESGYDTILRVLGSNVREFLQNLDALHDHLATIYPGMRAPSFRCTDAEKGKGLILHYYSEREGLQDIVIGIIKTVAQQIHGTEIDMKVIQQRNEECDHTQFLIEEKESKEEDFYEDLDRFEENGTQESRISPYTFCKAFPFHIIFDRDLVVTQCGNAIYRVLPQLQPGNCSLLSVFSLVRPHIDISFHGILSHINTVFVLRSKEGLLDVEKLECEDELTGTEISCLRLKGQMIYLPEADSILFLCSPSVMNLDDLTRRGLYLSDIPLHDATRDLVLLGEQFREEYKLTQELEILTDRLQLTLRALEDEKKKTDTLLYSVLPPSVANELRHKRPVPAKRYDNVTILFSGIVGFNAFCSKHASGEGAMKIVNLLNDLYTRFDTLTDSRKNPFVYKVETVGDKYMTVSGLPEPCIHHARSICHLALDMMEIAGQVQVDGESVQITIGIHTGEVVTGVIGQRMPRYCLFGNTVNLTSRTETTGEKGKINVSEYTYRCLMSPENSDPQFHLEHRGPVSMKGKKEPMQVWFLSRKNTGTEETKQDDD
T1 sequence (Q02108 1-690): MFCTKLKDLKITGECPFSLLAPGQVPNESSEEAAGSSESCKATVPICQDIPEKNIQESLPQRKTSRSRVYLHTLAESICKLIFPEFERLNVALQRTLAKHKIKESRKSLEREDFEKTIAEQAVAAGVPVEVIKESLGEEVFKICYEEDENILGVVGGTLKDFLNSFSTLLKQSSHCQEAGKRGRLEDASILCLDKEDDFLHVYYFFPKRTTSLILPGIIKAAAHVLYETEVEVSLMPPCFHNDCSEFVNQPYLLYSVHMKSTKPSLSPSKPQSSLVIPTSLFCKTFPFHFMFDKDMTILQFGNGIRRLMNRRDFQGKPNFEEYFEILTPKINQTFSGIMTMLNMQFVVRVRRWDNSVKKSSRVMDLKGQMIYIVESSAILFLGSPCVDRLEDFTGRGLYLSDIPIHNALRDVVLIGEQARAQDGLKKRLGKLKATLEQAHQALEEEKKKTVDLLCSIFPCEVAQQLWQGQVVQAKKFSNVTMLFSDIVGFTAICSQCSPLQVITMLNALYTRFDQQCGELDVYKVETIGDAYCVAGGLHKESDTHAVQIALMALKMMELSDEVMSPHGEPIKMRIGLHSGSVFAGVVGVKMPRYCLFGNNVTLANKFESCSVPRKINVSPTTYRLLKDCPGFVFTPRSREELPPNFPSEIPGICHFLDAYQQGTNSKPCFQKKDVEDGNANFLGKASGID
Procedure: (§1) Human soluble guanylate cyclase enzyme (hsGC) obtained from Enzo Inc. (P/N: ALX-201-177) was used to evaluate the activity of test compounds. The assay reactions contained 0.1 M Tris (pH 8.0), 0.5 mg/mL BSA (pH 8.0), 2 mM DTT, 2 mM MgCl2, 300 μM GTP, 1 mM 3-isobutyl-1-methylxanthine (IBMX) and 5 ng human soluble guanylate cyclase enzyme. Test compounds in DMSO were then added (2 μL, 10 or 30 μM final concentration) and incubated (water, 200 μL, 96-well plate format) at 37° C. for 30 minutes. The controls were carried out using 2 μL DMSO. After the 30 minute incubation, the reaction was stopped with the addition of 200 μL of cold methanol. The plate was then centrifuged at 3,200 rpm for 10 minutes at room temperature. Supernatants (200 μL) were collected and transferred to a new 96 well plate for analysis by HPLC LC/MS/MS.
(§2) An 8 point cGMP (Sigma-Aldrich P/N: G6129) standard curve was prepared in assay buffer ranging from 0.156-20 μM. Samples for the cGMP standard curve were then diluted with an equal volume of methanol resulting in final cGMP concentrations of 0.078-10 μM.
(§3) The cGMP standard curve was generated using GraphPad Prism Software.
Calculations: Specific Activity was determined by the amount of cGMP formed (nmoles) per mg of sGC per min. Enzyme “fold-change” was calculated by dividing Specific Activity for test compounds by Specific Activity of DMSO controls. […]

[3] = target: T1, Human soluble guanylate cyclase enzyme (hsGC); test: Purified human sGC enzyme activity assay (without SNP); format: biochemical; conditions: 30 μM compound, fold change of specific activity vs DMSO control
Procedure: as §1, §2, §3
Calculations: Specific Activity was determined by the amount of cGMP formed (nmoles) per mg of sGC per min. Enzyme “fold-change” was calculated by dividing Specific Activity for test compounds by Specific Activity of DMSO controls.

[4] = target: T2, soluble guanylate cyclase (sGC) (Homo sapiens, UniProt Q02108+Q02153); test: sGC-HEK-cGMP assay with SNP incubation (LC/MS read-out); format: cell-based; conditions: 10 μM SNP, 100% = BAY 41-2272 at 10 μM with 100 μM SNP
T2 construct: endogenously expressing soluble guanylate cyclase (sGC); endogenous in cells; host or cells: HEK293
T2 sequence (Q02153 1-619): T1 sequence (Q02153 1-619)
T2 sequence (Q02108 1-690): T1 sequence (Q02108 1-690)
Procedure: (Assay Run with SNP Incubation)
Human embryonic kidney cells (HEK293), endogenously expressing soluble guanylate cyclase (sGC), were used to evaluate the activity of test compounds. Compounds stimulating the sGC receptor should cause an increase in the intracellular concentration of cGMP. HEK 293 cells were seeded in Dulbecco's Modification of Eagle's Medium supplemented with fetal bovine serum (10% final) and L-glutamine (2 mM final) in a 200 μL volume at a density of 1×10^5 cells/well in a poly-D-lysine coated 96 well flat bottom plate and grown overnight at 37° C. Medium was aspirated and cells were washed with 1× Hank's Buffered Saline Salt Solution (200 μL). Cells were then incubated for 15 minutes at 37° C. with 200 μL of a 0.5 mM 3-isobutyl-1-methylxanthine (IBMX) solution. Test article and sodium nitroprusside solutions (x μM concentration for test article solution and 10 μM concentration for SNP solution; wherein x is one of the following concentrations);
were then added to the assay mixture (2 μL each) and the resulting mixture incubated at 37° C. for 10 minutes. After the 10 minute incubation, the assay mixture was aspirated and 0.1M HCl (200 μL) was added to the cells. The plate was incubated at 4° C. for 30 minutes in the 0.1M HCl to stop the reaction and lyse the cells. The plates were then centrifuged at 1,200 g for 5 minutes at room temperature. Supernatants were collected and transferred to a new flat bottom 96 well plate for analysis by HPLC-MS. Vehicle controls were carried out using DMSO (1%) solutions. A known sGC stimulator, BAY 41-2272, was used as the positive control. Samples were diluted with an equal volume of 1 M Ammonium Acetate (pH 7) to neutralize samples for better chromatography. A 2×cGMP standard solution was prepared in 0.1 M HCl and then diluted with an equal volume of 1 M Ammonium Acetate, with the following final concentrations in nM: 1024, 512, 256, 128, 64, 32, 16, 8, 4, 2, 1. cGMP concentrations in the test plates were determined from each sample using the LC/MS conditions shown in Table 2 below and the calculated cGMP standard curve. EC50 values were calculated from concentration-response curves generated with GraphPad Prism Software.
The biological activities of some of the compounds of Formula I or Formula Ib determined with the sGC-HEK assay with SNP incubation are summarized in Tables 3A and 3B.

| SMILES | IC50 [1] | Enzyme Activity (increase at 30 μM with SNP) [2] | Enzyme Activity (increase at 30 μM without SNP) [3] | Emax at 10 µM ([4]; 10 μM compound, read-out: HEK assay (Percent Emax at 10 μM)) | Emax at 30 µM ([4]; 30 μM compound, read-out: HEK assay (Percent Emax at 30 μM)) |
| --- | --- | --- | --- | --- | --- |
| CC(C)[N+]1(C)[C@@H]2CC[C@H]1CC(OC(=O)C(CO)c1ccccc1)C2 (some centres unmarked) [Ipratropium bromide] | 0.86 nM | – | – | – | – |
| Nc1nc(-n2cc(-c3ncco3)c(Cc3ccccc3F)n2)ncc1F [Compound I-8] | – | E (E = 20 to 30 fold increase) | C (C = 5 to <10 fold increase) | 60 to 80% | 60 to 80% |
